# Laboratory results published in US20250231185A1, “Coronavirus T Cell Epitopes, Megapools and Uses Thereof” (La Jolla Institute for Immunology, priority 2021, published 2025).
# Entries after “also recorded” stand apart in the source; their conditions may differ. Where two headings read alike, the source gives them in different places.
# Assays:
# [1] = tested on: CD4+ T cells; details: cited from earlier work; for Allele(s): HLA class II allele(s) identified as MHC restriction elements of the CD4 epitope; for Restriction: T cell subset (CD4 or CD8) recognizing the SARS-CoV-2 epitope
# [2] = tested on: CD8+ T cells; assay: Meta-analysis of published SARS-CoV-2 CD8 T cell epitope data curated in the IEDB (25 studies); format: cell-based, human; details: for Dominant: dominant = recognized by 3 or more donors/different studies
# [3] = tested on: CD8+ T cells; details: cited from earlier work
# [4] = SARS-CoV-2-derived CD4 epitopes, Yes = recognized by 3 or more donors/different studies
# [5] = SARS-CoV-2 Ag S, T cell type recognizing the epitope
# [6] = SARS-CoV-2-derived CD8 epitopes
# [7] = T cell type (CD4 or CD8) recognizing the SARS-CoV-2 epitope
Substance,"Dominant ([2]; SARS-CoV-2 Ag S, CD8 epitopes)","Restriction [3, 5]","Dominant [2, 6]","Restriction [3, 7]",other results
79 (KPRQKRTATKAYNVT) [compound 79],–,–,–,–,Allele(s) [1]: DPB1*14:01; Restriction [1]: CD4
258 (QEEVQELYSPIFLIV) [compound 258],–,–,–,–,"Dominant ([1]; CD4 epitopes, dominant = recognized by 3 or more donors/different studies): Yes (more dominant epitopes are defined by being recognized by 3 or more donors/different studies)"
27 (GTILTRPLLESELVI) [compound 27],–,–,–,–,Allele(s) [1]: DRB1*13:01; Restriction [1]: CD4
53 (ASWFTALTQHGKEDL) [compound 53],–,–,–,–,"Dominant [1, 4]: Yes (more dominant epitopes are defined by being recognized by 3 or more donors/different studies); Restriction [1]: CD4"
33 (RGHLRIAGHHLGRCD) [compound 33],–,–,–,–,"Allele(s) [1]: DRB1*07:01, DRB1*13:01,; also recorded: DRB1*14:01, DRB1*15:01; Dominant [1, 4]: Yes (more dominant epitopes are defined by being recognized by 3 or more donors/different studies); Restriction [1]: CD4"
12 (LYIIKLIFLWLLWPV) [compound 12],–,–,–,–,"Allele(s) [1]: DQB1*02:01, DRB1*12:01; Restriction [1]: CD4"
1405 (VLNDILSRL) [compound 1405],Yes (more dominant epitopes are defined by being recognized by 3 or more donors/different studies),CD8,–,–,–
1458 (YEQYIKWPWYI) [compound 1458],Yes (more dominant epitopes are defined by being recognized by 3 or more donors/different studies),CD8,–,–,–
1392 (LQIPFAMQMAY) [compound 1392],Yes (more dominant epitopes are defined by being recognized by 3 or more donors/different studies),CD8,–,–,–
909 (ALRANSAVK) [compound 909],–,–,Yes (more dominant epitopes are defined by being recognized by 3 or more donors/different studies),CD8,–
1442 (GTHWFVTQR) [compound 1442],Yes (more dominant epitopes are defined by being recognized by 3 or more donors/different studies),CD8,–,–,–
903 (FTYASALWEI) [compound 903],–,–,Yes (more dominant epitopes are defined by being recognized by 3 or more donors/different studies),CD8,–
989 (MVMCGGSLYV) [compound 989],–,–,Yes (more dominant epitopes are defined by being recognized by 3 or more donors/different studies),CD8,–
1072 (KVDGVDVEL) [compound 1072],–,–,Yes (more dominant epitopes are defined by being recognized by 3 or more donors/different studies),CD8,–
920 (TVLSFCAFAV) [compound 920],–,–,Yes (more dominant epitopes are defined by being recognized by 3 or more donors/different studies),CD8,–
901 (NTCDGTTFTY) [compound 901],–,–,Yes (more dominant epitopes are defined by being recognized by 3 or more donors/different studies),CD8,–
910 (CTDDNALAYY) [compound 910],–,–,Yes (more dominant epitopes are defined by being recognized by 3 or more donors/different studies),CD8,–
1367 (LLQYGSFCT) [compound 1367],Yes (more dominant epitopes are defined by being recognized by 3 or more donors/different studies),CD8,–,–,–
1026 (VVYRGTTTY) [compound 1026],–,–,Yes (more dominant epitopes are defined by being recognized by 3 or more donors/different studies),CD8,–
1042 (IVDTVSALV) [compound 1042],–,–,Yes (more dominant epitopes are defined by being recognized by 3 or more donors/different studies),CD8,–
1085 (GVAMPNLYK) [compound 1085],–,–,Yes (more dominant epitopes are defined by being recognized by 3 or more donors/different studies),CD8,–
1027 (VYRGTTTYKL) [compound 1027],–,–,Yes (more dominant epitopes are defined by being recognized by 3 or more donors/different studies),CD8,–
1431 (VVFLHVTYV) [compound 1431],Yes (more dominant epitopes are defined by being recognized by 3 or more donors/different studies),CD8,–,–,–
1452 (RLNEVAKNL) [compound 1452],Yes (more dominant epitopes are defined by being recognized by 3 or more donors/different studies),CD8,–,–,–
1012 (LYLQYIRKL) [compound 1012],–,–,Yes (more dominant epitopes are defined by being recognized by 3 or more donors/different studies),CD8,–

Substance,"Dominant ([2]; SARS-CoV-2 Ag S, CD8 epitopes)","Restriction [3, 5]","Dominant [2, 6]","Restriction [3, 7]",other results
1321 (SFELLHAPATV) [compound 1321],Yes (more dominant epitopes are defined by being recognized by 3 or more donors/different studies),CD8,–,–,–
YLQPRTFLL [SEQ ID NO: 1481],–,–,–,–,"found to be positive in independent studies ([2]; overall, all curated studies): 11 independent studies; recognized in subjects ([3]; Ferretti et al., 67% of the subjects tested): ≥ 3 subjects; IFN-f response ([3]; Habel et al., 14 peptides screened, HLA-A*02:01): strongest; detected in HLA-A2+ individuals ([3]; Nielsen study, HLA-A*02:01): 81%; responses detected in patients ([3]; Rha et al., 37 of 112 and 2 of 40 patients): 33%; MHC class I multimer+ cells in unexposed subjects ([3]; Rha et al.): not detected; dominance as reported ([3]; Sahin et al.): most dominant epitope"
1313 (YFPLQSYGF) [compound 1313],Yes (more dominant epitopes are defined by being recognized by 3 or more donors/different studies),CD8,–,–,–
1025 (VVYRGTTTYK) [compound 1025],–,–,Yes (more dominant epitopes are defined by being recognized by 3 or more donors/different studies),CD8,–
1087 (KMQRMLLEK) [compound 1087],–,–,Yes (more dominant epitopes are defined by being recognized by 3 or more donors/different studies),CD8,–
1069 (NLWNTFTRL) [compound 1069],–,–,Yes (more dominant epitopes are defined by being recognized by 3 or more donors/different studies),CD8,–
1082 (LLLDDFVEII) [compound 1082],–,–,Yes (more dominant epitopes are defined by being recognized by 3 or more donors/different studies),CD8,–
943 (KLFDRYFKY) [compound 943],–,–,Yes (more dominant epitopes are defined by being recognized by 3 or more donors/different studies),CD8,–
970 (RLYYDSMSY) [compound 970],–,–,Yes (more dominant epitopes are defined by being recognized by 3 or more donors/different studies),CD8,–
1453 (NLNESLIDL) [compound 1453],Yes (more dominant epitopes are defined by being recognized by 3 or more donors/different studies),CD8,–,–,–
1345 (IPIGAGICASY) [compound 1345],Yes (more dominant epitopes are defined by being recognized by 3 or more donors/different studies),CD8,–,–,–
1396 (TQNVLYENQK) [compound 1396],Yes (more dominant epitopes are defined by being recognized by 3 or more donors/different studies),CD8,–,–,–
1304 (NYNYLYRLFRK) [compound 1304],Yes (more dominant epitopes are defined by being recognized by 3 or more donors/different studies),CD8,–,–,–
1466 (SEPVLKGVKL) [compound 1466],Yes (more dominant epitopes are defined by being recognized by 3 or more donors/different studies),CD8,–,–,–
1425 (FPQSAPHGVVF) [compound 1425],Yes (more dominant epitopes are defined by being recognized by 3 or more donors/different studies),CD8,–,–,–
1052 (VLWAHGFEL) [compound 1052],–,–,Yes (more dominant epitopes are defined by being recognized by 3 or more donors/different studies),CD8,–
1350 (SVASQSIIAY) [compound 1350],Yes (more dominant epitopes are defined by being recognized by 3 or more donors/different studies),CD8,–,–,–
1422 (HLMSFPQSA) [compound 1422],Yes (more dominant epitopes are defined by being recognized by 3 or more donors/different studies),CD8,–,–,–
966 (VVDKYFDCY) [compound 966],–,–,Yes (more dominant epitopes are defined by being recognized by 3 or more donors/different studies),CD8,–
1315 (FQPTNGVGY) [compound 1315],Yes (more dominant epitopes are defined by being recognized by 3 or more donors/different studies),CD8,–,–,–
1061 (SYATHSDKF) [compound 1061],–,–,Yes (more dominant epitopes are defined by being recognized by 3 or more donors/different studies),CD8,–
1398 (NQKLIANQF) [compound 1398],Yes (more dominant epitopes are defined by being recognized by 3 or more donors/different studies),CD8,–,–,–
1324 (GPKKSTNLV) [compound 1324],Yes (more dominant epitopes are defined by being recognized by 3 or more donors/different studies),CD8,–,–,–
1041 (VYIGDPAQL) [compound 1041],–,–,Yes (more dominant epitopes are defined by being recognized by 3 or more donors/different studies),CD8,–
1067 (KQFDTYNLW) [compound 1067],–,–,Yes (more dominant epitopes are defined by being recognized by 3 or more donors/different studies),CD8,–
